Measured values as given in the supplement of paper PMC10307832.

Key:
Experiment in all cases: relative viability (nuclei count vs DMSO), 5 days (fraction); higher = more cells survive
Bexarotene + Navitoclax = compound: C=C(c1ccc(C(=O)O)cc1)c1cc2c(cc1C)C(C)(C)CCC2(C)C [Bexarotene] + CC1(C)CCC(c2ccc(Cl)cc2)=C(CN2CCN(c3ccc(C(=O)NS(=O)(=O)c4ccc(N[C@H](CCN5CCOCC5)CSc5ccccc5)c(S(=O)(=O)C(F)(F)F)c4)cc3)CC2)C1 [Navitoclax] (partner 0.5 µM)
Summary of the method: (§1)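 Values are medians from duplicate plates. Each reflects relative viability, defined as the nuclei count of treated wells over that of vehicle wells. Lung cancer cell lines in 1536-well plates were pin-tool dosed one day after seeding with one drug alone or with a fixed anchor-drug dose plus five library-drug doses (not always all listed) in √10 steps, then fixed, stained and imaged at 4× after 5 days.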

Bexarotene + Crizotinib = compound: C=C(c1ccc(C(=O)O)cc1)c1cc2c(cc1C)C(C)(C)CCC2(C)C [Bexarotene] + C[C@@H](Oc1cc(-c2cnn(C3CCNCC3)c2)cnc1N)c1c(Cl)ccc(F)c1Cl [Crizotinib] (partner 1 µM)
Summary of the method: as §1

Bexarotene + Dasatinib = compound: C=C(c1ccc(C(=O)O)cc1)c1cc2c(cc1C)C(C)(C)CCC2(C)C [Bexarotene] + Cc1nc(Nc2ncc(C(=O)Nc3c(C)cccc3Cl)s2)cc(N2CCN(CCO)CC2)n1 [Dasatinib] (partner 0.075 µM)
Summary of the method: as §1

Bexarotene + Vorinostat = compound: C=C(c1ccc(C(=O)O)cc1)c1cc2c(cc1C)C(C)(C)CCC2(C)C [Bexarotene] + O=C(CCCCCCC(=O)Nc1ccccc1)NO [Vorinostat] (partner 1 µM)
Summary of the method: as §1

Cell Line | relative viability (Bexarotene + Navitoclax; first compound 0.08 µM) | relative viability (Bexarotene + Navitoclax; first compound 0.253 µM) | relative viability (Bexarotene + Navitoclax; first compound 0.8 µM) | relative viability (Bexarotene + Navitoclax; first compound 2.53 µM) | relative viability (Bexarotene + Navitoclax; first compound 8 µM) | relative viability (Bexarotene + Crizotinib; first compound 0.08 µM) | relative viability (Bexarotene + Crizotinib; first compound 0.253 µM) | relative viability (Bexarotene + Crizotinib; first compound 0.8 µM) | relative viability (Bexarotene + Crizotinib; first compound 2.53 µM) | relative viability (Bexarotene + Crizotinib; first compound 8 µM) | relative viability (Bexarotene + Dasatinib; first compound 0.08 µM) | relative viability (Bexarotene + Dasatinib; first compound 0.253 µM) | relative viability (Bexarotene + Dasatinib; first compound 0.8 µM) | relative viability (Bexarotene + Dasatinib; first compound 2.53 µM) | relative viability (Bexarotene + Dasatinib; first compound 8 µM) | relative viability (Bexarotene + Vorinostat; first compound 0.08 µM) | relative viability (Bexarotene + Vorinostat; first compound 0.253 µM) | relative viability (Bexarotene + Vorinostat; first compound 0.8 µM) | relative viability (Bexarotene + Vorinostat; first compound 2.53 µM) | relative viability (Bexarotene + Vorinostat; first compound 8 µM)
SK-MES-1 | 1.47 | 1.2 | 1.25 | 1.33 | 1.09 | 0.995 | 1.06 | 1.01 | 1.04 | 0.925 | 0.283 | 0.459 | 0.348 | 0.401 | 0.313 | 1.2 | 1.28 | 1.11 | 1.06 | 0.936
NCI-H1666 | 0.98 | 0.922 | 0.864 | 0.897 | 0.723 | 1.04 | 0.897 | 0.769 | 0.869 | 0.952 | 0.793 | 0.826 | 0.783 | 0.788 | 0.77 | 0.815 | 0.959 | 0.829 | 0.916 | 0.791
NCI-H1355 | 1.03 | 0.998 | 0.928 | 1.17 | 0.84 | 1.14 | 1.11 | 1.03 | 1.14 | 1.13 | 0.744 | 0.814 | 0.55 | 0.627 | 0.707 | 0.672 | 0.724 | 0.584 | 0.604 | 0.619
HCC-827 | 1.06 | 1.05 | 0.97 | 0.975 | 0.868 | 0.894 | 0.939 | 0.902 | 0.94 | 0.915 | 0.284 | 0.465 | 0.419 | 0.35 | 0.344 | 0.906 | 0.674 | 0.775 | 0.781 | 0.821
HARA | 1.23 | 1.27 | 1.17 | 1.07 | 0.854 | 1.15 | 0.993 | 0.885 | 0.948 | 0.798 | 0.324 | 0.268 | 0.332 | 0.407 | 0.567 | 0.655 | 0.512 | 0.584 | 0.606 | 0.51
HCC-366 | 1.04 | 1.15 | 1.14 | 0.975 | 1.03 | 0.526 | 0.62 | 0.35 | 0.574 | 0.586 | 0.737 | 0.67 | 0.613 | 0.649 | 0.621 | 0.361 | 0.487 | 0.329 | 0.276 | 0.328
NCI-H322M | 1.19 | 1.33 | 1.17 | 1.19 | 1.26 | 0.829 | 1.06 | 0.87 | 0.93 | 1.04 | 0.282 | 0.266 | 0.264 | 0.261 | 0.3 | 0.978 | 0.983 | 0.945 | 0.757 | 0.934
NCI-H2347 | 0.971 | 0.846 | 0.63 | 0.793 | 0.783 | 0.671 | 0.773 | 0.597 | 0.765 | 0.674 | 0.358 | 0.323 |  | 0.259 | 0.244 | 0.703 | 0.622 | 0.513 | 0.681 | 0.557
NCI-H1975 | 1.29 | 1.19 | 1.3 | 1.22 | 1.09 | 1.01 | 1.02 | 1.05 | 1.08 | 1.11 | 0.468 | 0.335 | 0.391 | 0.335 | 0.375 | 0.884 | 0.758 | 0.725 | 0.754 | 0.795
UMC-11 | 0.347 | 0.268 | 0.306 | 0.305 | 0.284 | 0.546 | 0.684 | 0.537 | 0.572 | 0.587 | 0.485 | 0.516 | 0.516 | 0.514 | 0.493 | 0.357 | 0.379 | 0.408 | 0.377 | 0.346
A-427 | 0.959 | 0.877 | 0.882 | 0.933 | 0.816 | 0.855 | 0.86 | 0.761 | 0.798 | 0.848 | 0.726 | 0.614 | 0.611 | 0.627 | 0.684 | 0.861 | 0.81 | 0.83 | 0.746 | 0.903
LCLC-97TM1 | 0.459 | 0.4 | 0.413 | 0.427 | 0.381 | 0.478 | 0.343 | 0.576 | 0.409 | 0.472 | 1.05 | 0.795 | 0.815 | 0.773 | 0.822 | 1.02 | 0.804 | 0.586 | 0.656 | 0.678
HCC-15 | 0.726 | 0.793 | 0.703 | 0.617 | 0.602 | 0.842 | 0.924 | 0.789 | 0.837 | 0.783 | 0.695 | 0.741 | 0.648 | 0.647 | 0.683 | 0.877 | 0.892 | 0.823 | 0.889 | 0.81
NCI-H647 | 1.32 | 1.35 | 1.2 | 1.15 | 1.1 | 1.38 | 1.18 | 1.19 | 1.12 | 0.912 | 0.173 | 0.153 | 0.123 | 0.0933 | 0.114 | 0.544 | 0.917 | 0.826 | 0.978 | 0.538
SW 1573 | 1.07 | 0.777 | 0.731 | 0.735 | 0.598 | 0.764 | 0.82 | 0.688 | 0.684 | 0.552 | 0.593 | 0.467 | 0.402 | 0.301 | 0.41 | 0.918 | 0.645 | 1.11 | 0.635 | 0.746
NCI-H1651 | 1.1 | 1.09 | 1.11 | 1.22 | 0.925 | 0.936 | 0.89 | 0.952 | 0.968 | 0.893 | 0.518 | 0.551 | 0.363 | 0.458 | 0.374 | 0.693 | 0.604 | 0.62 | 0.602 | 0.608
